Common to all, as to type: cell-based
One experiment relates to Pyrenophora graminea. Nature of the experiment: Fungal growth assay, Control of Pyrenophora graminea (PDB, 96-well, 24° C., photometric, 72 hrs).
The next experiment relates to Septoria tritici. Put plainly: Fungal growth assay, Control of Septoria tritici (PDB, 96-well, 24° C., photometric, 72 hrs).
In another experiment the test system is Rhizoctonia solani. Put plainly: Fungal growth assay, Control of Rhizoctonia solani (PDB, 96-well, 24° C., photometric, 48 hrs).
The test system of the next experiment is Fusarium graminearum.
The test system of a further experiment is Gäumannomyces graminis. Nature of the experiment: Fungal growth assay, Control of Gaumannomyces graminis (PDB, 96-well, 24° C., photometric, 72 hrs).
The next experiment has as its system Ustilago nuda. Put plainly: Fungal growth assay, Control of Ustilago nuda (PDB, 96-well, 24° C., photometric, 48 hrs).
The next experiment concerns Microdochium nivale. Put plainly: Fungal growth assay, Control of Microdochium nivale (PDB, 96-well, 24° C., photometric, 72 hrs).

Several values for one entry are separate records, joined by “and”; a condition that tells them apart may be missing. Equal entries are not always repeated. Where two headings read alike, the source gives them in different places.

The results in this text go back to patent US10405548B2, “Fungicidal compositions” (Syngenta Crop Protection, LLC, priority 2004, dated 2019).

As for `c1ccc2[nH]c(-c3cscn3)nc2c1` [Thiabendazole, reference compound], the “Observed control in % (% Cobs)” value in the experiment on Pyrenophora graminea (0.0025 ppm) was found to be 0%; in the experiment with Pyrenophora graminea (0.0223 ppm), 0%; in the experiment on Septoria tritici (0.0223 ppm), 0%; in the experiment with Septoria tritici (0.067 ppm) it was 0%; in the experiment on Septoria tritici (0.6 ppm), 3%; with Septoria tritici (1.8 ppm), 1%. In addition, the “Observed control in % (% Cobs)” value in the experiment on Rhizoctonia solani (0.0074 ppm) stood at 0%; with Rhizoctonia solani (0.023 ppm), 7%; in the experiment with Rhizoctonia solani (0.2 ppm), 12%; in the experiment with Rhizoctonia solani (0.6 ppm) it was 13%; with Fusarium graminearum (0.0025 ppm) it was 1%; with Fusarium graminearum (0.0223 ppm), 0%.

Turning to `CO/C=C(/C(=O)OC)c1ccccc1Oc1cc(Oc2ccccc2C#N)ncn1` [Azoxystrobin, reference compound], the “Observed control in % (% Cobs)” value in the experiment with Gäumannomyces graminis (0.002 ppm) came to 11%.

For the compound `CC1COC(Cn2cncn2)(c2ccc(Oc3ccc(Cl)cc3)cc2Cl)O1` (centres unmarked) [Difenoconazole, reference compound], the “Observed control in % (% Cobs)” value in the experiment on Pyrenophora graminea (0.007 ppm) is given as 0%; in the experiment on Pyrenophora graminea (0.022 ppm), 15%; in the experiment on Pyrenophora graminea (0.067 ppm), 23%; with Pyrenophora graminea (0.2 ppm) it was 51%; in the experiment with Ustilago nuda (0.002 ppm), 2%; in the experiment on Microdochium nivale (0.007 ppm) it was 4%. The “Observed control in % (% Cobs)” value was determined as 1% in the experiment with Microdochium nivale (0.2 ppm) and 13% in the experiment with Microdochium nivale (0.6 ppm).

On to `N#Cc1c[nH]cc1-c1cccc2c1OC(F)(F)O2` [Fludioxonil, reference compound], for which the “Observed control in % (% Cobs)” value with Pyrenophora graminea (0.002 ppm) came to 7%; with Ustilago nuda (0.002 ppm), 0%; in the experiment on Ustilago nuda (0.007 ppm) it was 0%; with Ustilago nuda (0.022 ppm), 21%; in the experiment on Septoria tritici (0.002 ppm) it was 0%; with Septoria tritici (0.067 ppm), 9%. Moreover, the “Observed control in % (% Cobs)” value in the experiment with Microdochium nivale (0.002 ppm) stood at 0%; in the experiment with Microdochium nivale (0.007 ppm), 0%; with Microdochium nivale (0.022 ppm), 0%; in the experiment on Microdochium nivale (0.067 ppm), 3%; in the experiment with Rhizoctonia solani (0.002 ppm) it was 0%; with Rhizoctonia solani (0.007 ppm) it was 6%. For the same compound, the “Observed control in % (% Cobs)” value in the experiment with Rhizoctonia solani (0.022 ppm) is recorded as 0%; in the experiment with Rhizoctonia solani (0.067 ppm) it was 0%; in the experiment with Fusarium graminearum (0.007 ppm) it was 1%; in the experiment with Fusarium graminearum (0.022 ppm), 6%; with Fusarium graminearum (0.067 ppm), 39%.

Turning to `CC(C1CC1)C(O)(Cn1cncn1)c1ccc(Cl)cc1` (centres unmarked) [Cyproconazole, reference compound], the “Observed control in % (% Cobs)” value in the experiment with Pyrenophora graminea (0.022 ppm) is listed as 4%; in the experiment on Pyrenophora graminea (0.2 ppm), 19%; with Pyrenophora graminea (0.6 ppm), 28%; with Microdochium nivale (0.2 ppm) it was 0%; in the experiment with Microdochium nivale (0.6 ppm), 0%; in the experiment with Microdochium nivale (1.8 ppm) it was 9%. Further, the “Observed control in % (% Cobs)” value worked out at 5% in the experiment with Fusarium graminearum (0.002 ppm), 1% with Fusarium graminearum (0.022 ppm) and 0% with Fusarium graminearum (0.2 ppm).

As to `Cn1cc(C(=O)Nc2ccccc2[C@@H]2C[C@H]2C2CC2)c(C(F)F)n1` (racemic) [Racemic cpd Ia], the “Observed control in % (% Cobs)” value worked out at 1% with Pyrenophora graminea (0.0003 ppm); 6% in the experiment with Pyrenophora graminea (0.0008 ppm); 0% in the experiment with Pyrenophora graminea (0.002 ppm); 4% in the experiment with Pyrenophora graminea (0.0074 ppm); 0% with Pyrenophora graminea (0.022 ppm); 20% with Pyrenophora graminea (0.0667 ppm). Moreover, the “Observed control in % (% Cobs)” value with Pyrenophora graminea (0.067 ppm) is 1%; in the experiment on Pyrenophora graminea (1.8 ppm), 11% and 1% and 6%; in the experiment on Ustilago nuda (0.0001 ppm), 5%; in the experiment with Ustilago nuda (0.0003 ppm), 0%; in the experiment with Ustilago nuda (0.002 ppm), 0%; in the experiment with Ustilago nuda (0.007 ppm) it was 15%. The “Observed control in % (% Cobs)” value with Gäumannomyces graminis (0.0003 ppm) amounted to 0%; with Gäumannomyces graminis (0.0008 ppm) it was 0%; in the experiment on Gäumannomyces graminis (0.002 ppm), 2%; in the experiment on Gäumannomyces graminis (0.007 ppm) it was 0%; with Gäumannomyces graminis (0.2 ppm), 0%; in the experiment with Septoria tritici (0.0001 ppm) it was 0%. Further, the “Observed control in % (% Cobs)” value was 2% and 1% in the experiment on Septoria tritici (0.0003 ppm); 0% in the experiment on Septoria tritici (0.007 ppm); 0% in the experiment with Septoria tritici (0.0074 ppm); 0% in the experiment with Septoria tritici (0.022 ppm); 4% in the experiment on Septoria tritici (0.067 ppm); 0% with Microdochium nivale (0.0003 ppm). Also, the “Observed control in % (% Cobs)” value in the experiment on Microdochium nivale (0.0008 ppm) is 0%; in the experiment with Microdochium nivale (0.002 ppm), 0%; in the experiment with Microdochium nivale (0.0025 ppm), 1% and 0%; in the experiment with Microdochium nivale (0.007 ppm) it was 2%; in the experiment on Microdochium nivale (0.0074 ppm) it was 0%; in the experiment with Microdochium nivale (0.067 ppm), 0% and 4% and 2%. The “Observed control in % (% Cobs)” value in the experiment with Rhizoctonia solani (0.0001 ppm) was determined as 3%; in the experiment with Rhizoctonia solani (0.0008 ppm), 8%; in the experiment on Rhizoctonia solani (0.0025 ppm), 4%; in the experiment on Rhizoctonia solani (0.007 ppm), 4%; with Rhizoctonia solani (0.0074 ppm), 0%; in the experiment with Fusarium graminearum (0.0001 ppm) it was 0%. Also, the “Observed control in % (% Cobs)” value with Fusarium graminearum (0.0008 ppm) was 0%; in the experiment with Fusarium graminearum (0.007 ppm), 0%; in the experiment on Fusarium graminearum (0.0074 ppm), 0%; in the experiment on Fusarium graminearum (0.022 ppm), 0%; in the experiment with Fusarium graminearum (0.0667 ppm), 7%; with Fusarium graminearum (0.067 ppm) it was 4% and 10%. Moreover, the results for the “Observed control in % (% Cobs)” value with Fusarium graminearum (0.2 ppm), in the experiment on Fusarium graminearum (0.6 ppm) and with Fusarium graminearum (1.8 ppm) were 7%, 12% and 18%, respectively.
